Assay results: US20070021405A1, “ARYL- AND HETEROARYLPIPERIDINECARBOXYLATE-DERIVATIVES METHODS FOR THEIR PREPARATION AND USE THEREOF AS FATTY ACID AMIDO HYDROLASE ENZYME INHIBITORS” (SANOFI-AVENTIS, priority 2004, published 2007)

System: male OF1 mice
Experiment: test for analgesia: abdominal tractions induced by PBQ (phenylbenzoquinone) i.p.
Type: in vivo, mouse
Conditions: 3 mg/kg p.o., administered 60 minutes before PBQ
Procedure: The in vivo activity of the compounds of the invention was evaluated in a test for analgesia.
Thus, the intraperitoneal (i.p.) administration of PBQ (phenylbenzoquinone, 2 mg/kg in a 0.9% sodium chloride solution comprising 5% of ethanol) to male OF1 mice weighing 25 to 30 g causes abdominal tractions, on average 30 twisting or contracting motions during the period from 5 to 15 minutes after injection. The test compounds are administered, orally (p.o.) or intraperitoneally (i.p.) in suspension in 0.5% Tween 80, 60 minutes or 120 minutes before the administration of PBQ. Under these conditions, the most powerful compounds of the invention reduce by 35 to 70% the number of tractions induced by the PBQ, within a range of doses of between 1 and 30 mg/kg.
For `CNC(=O)COC(=O)N1CCC(CCc2ccc(Cl)cc2)CC1` [compound 57, 2-(methylamino)-2-oxoethyl 4-[2-(4-chloro-phenyl)ethyl]piperidine-1-carboxylate], the “reduction of the number of tractions induced by the PBQ” value was 37%.

Same assay, conditions: 3 mg/kg p.o., administered 120 minutes before PBQ
For `CNC(=O)COC(=O)N1CCC(CCc2ccc(Cl)cc2)CC1` [compound 57, 2-(methylamino)-2-oxoethyl 4-[2-(4-chloro-phenyl)ethyl]piperidine-1-carboxylate], the “reduction of the number of tractions induced by the PBQ” value was 74%.

Biological target: T1, enzyme FAAH (Fatty Acid Amido Hydrolase) (Mus musculus, UniProt O08914)
T1 construct: The membrane homogenates are prepared at the time of use by homogenization of the tissues; from tissue; host or cells: mouse brain (minus the cerebellum), membrane homogenate
T1 sequence (O08914 1-579): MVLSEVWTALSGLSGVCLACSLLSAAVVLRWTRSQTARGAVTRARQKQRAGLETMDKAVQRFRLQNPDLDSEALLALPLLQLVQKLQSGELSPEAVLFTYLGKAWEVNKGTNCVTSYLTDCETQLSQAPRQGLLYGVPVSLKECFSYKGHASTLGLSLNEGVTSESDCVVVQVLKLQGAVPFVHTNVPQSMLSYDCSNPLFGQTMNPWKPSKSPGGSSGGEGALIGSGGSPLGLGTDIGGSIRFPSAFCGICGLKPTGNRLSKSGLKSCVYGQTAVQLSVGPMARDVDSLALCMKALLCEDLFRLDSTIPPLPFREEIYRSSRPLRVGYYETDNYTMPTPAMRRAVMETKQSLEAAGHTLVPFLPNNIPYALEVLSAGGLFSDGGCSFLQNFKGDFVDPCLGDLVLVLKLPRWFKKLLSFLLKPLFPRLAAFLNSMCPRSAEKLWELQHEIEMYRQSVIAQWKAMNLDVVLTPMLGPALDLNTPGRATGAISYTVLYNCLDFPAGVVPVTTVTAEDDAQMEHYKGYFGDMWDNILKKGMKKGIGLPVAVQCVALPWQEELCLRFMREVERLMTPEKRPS
Experiment: radioenzymatic test of FAAH inhibition: hydrolysis of ((1-3H)ethanolamine)-anandamide by mouse brain membrane homogenates
Type: biochemical
Conditions: mouse brain membrane homogenate, 10 μM anandamide, 15 minutes at 25° C.; read-out: IC50 (concentration which inhibits the control enzymatic activity of FAAH by 50%)
Procedure: The compounds of the invention have formed the subject of pharmacological trials which make it possible to determine their inhibitory effect on the enzyme FAAH (Fatty Acid Amido Hydrolase).
Thus, mouse brains (minus the cerebellum) are removed and stored at −80° C. The membrane homogenates are prepared at the time of use by homogenization of the tissues with a Polytron in a 10 mM Tris-HCl buffer (pH 8.0) comprising 150 mM NaCl and 1 mM EDTA. The enzymatic reaction is subsequently carried out in 70 μl of buffer comprising bovine serum albumin free from fatty acids (1 mg/ml). The test compounds, at various concentrations, the ((1-^3H)ethanolamine)-anandamide (specific activity of 15-20 Ci/mmol), diluted to 10 μM with non-radiolabelled anandamide, and the membrane preparation (400 μg of frozen tissue per assay) are successively added. After 15 minutes at 25° C., the enzymatic reaction is halted by addition of 140 μl of chloroform/methanol (2:1). The mixture is stirred for 10 minutes and is then centrifuged at 3500 g for 15 minutes. An aliquot (30 μl) of the aqueous phase comprising the (1-^3H)ethanolamine is counted by liquid scintillation.
In the case of `CNC(=O)COC(=O)N1CCC(O)(c2ccc(-c3ccc(Cl)c(Cl)c3)cc2)CC1` [Compound No. 40, 2-(Methylamino)-2-oxoethyl 4-(3′,4′-dichlorobiphenyl-4-yl)-4-hydroxypiperidine-1-carboxylate], the IC50 is reported as 98 nM. `CCOc1ccc(-c2ccc(C3(O)CCN(C(=O)OCC(=O)NC)CC3)cc2)cc1` [compound 39, 2-(methylamino)-2-oxoethyl 4-(4′-ethoxybiphenyl-4-yl)-4-hydroxypiperidine-1-carboxylate] gave an IC50 of 95 nM.

System: not given
Experiment: not given
Conditions: not given
With `CNC(=O)COC(=O)N1CCC(n2cnc(-c3ccccc3)c2)CC1` [Compound No. 14, 2-(Methylamino)-2-oxoethyl 4-(4-phenyl-1H-imidazol-1-yl)piperidine-1-carboxylate] the melting point was 192 to 194 °C. `CNC(=O)COC(=O)N1CCC(O)(c2ccc(Br)cc2)CC1` [Compound No. 32, 2-(Methylamino)-2-oxoethyl 4-(4-bromophenyl)-4-hydroxypiperidine-1-carboxylate] gave a melting point of 57 to 60 °C. `CNC(=O)COC(=O)N1CCC(O)(c2ccc(-c3ccc(Cl)c(Cl)c3)cc2)CC1` [Compound No. 40, 2-(Methylamino)-2-oxoethyl 4-(3′,4′-dichlorobiphenyl-4-yl)-4-hydroxypiperidine-1-carboxylate] showed a melting point of 156 to 158 °C. With `CNC(=O)COC(=O)N1CCC(Cc2ccc3ccccc3c2)CC1` [Compound No. 43, 2-(Methylamino)-2-oxoethyl 4-(naphth-2-ylmethyl)piperidine-1-carboxylate] the melting point was 150 to 152 °C. Compound `CNC(=O)COC(=O)N1CCC(CCc2nccc3ccccc23)CC1` [Compound No. 74, 2-(Methylamino)-2-oxoethyl 4-(2-(isoquinolin-1-yl)ethyl)-1-piperidinecarboxylate] has a melting point of 126 to 128 °C. For `CNC(=O)COC(=O)N1CCC(CCCc2ccc(Cl)cc2)CC1` [Compound No. 83, 2-(Methylamino)-2-oxoethyl 4-[3-(4-chlorophenyl)propyl]piperidine-1-carboxylate], the melting point was 118 to 120 °C. In the case of `CNC(=O)COC(=O)N1CCC(CC#Cc2ccc(Cl)cc2)CC1` [Compound No. 107, 2-(Methylamino)-2-oxoethyl 4-[3-(4-chlorophenyl)prop-2-yn-1-yl]piperidine-1-carboxylate], the melting point is reported as 101 to 103 °C. With `NC(=O)COC(=O)N1CCC(Cn2ccc3ccccc32)CC1` [compound 47, 2-amino-2-oxoethyl 4-(1H-indol-1-ylmethyl)piperidine-1-carboxylate] the melting point was 158 to 159 °C.
